Data as given in publication PMC5423977, “Safety, pharmacokinetics, and pharmacodynamics of BMS-986142, a novel reversible BTK inhibitor, in healthy participants” (European Journal of Clinical Pharmacology, 2017).

Test: Safety and tolerability (adverse events), Study 1 MAD in healthy participants
Format: in vivo, human
[1] = Study 1 MAD group, BMS-986142-treated
[2] = Study 1 MAD, all BMS-986142 doses, n = 24

Compound: Cc1c(-c2c(F)cc(C(N)=O)c3[nH]c4c(c23)CC[C@H](C(C)(C)O)C4)cccc1-n1c(=O)c2cccc(F)c2n(C)c1=O [BMS-986142, 6-fluoro-5-(R)-(3-(S)-(8-fluoro-1-methyl-2,4-dioxo-1,2-dihydroquinazolin-3(4H)-yl)-2-methylphenyl)-2-(S)-(2-hydroxypropan-2-yl)-2,3,4,9-tetrahydro-1H-carbazole-8-carboxamide]
- AE: Headache (MAD 200 mg QD, n = 6): 0 n (%)
- AE: Psychotic disorder (MAD 200 mg QD, n = 6): 0 n (%)
- AE: Rash (MAD 200 mg QD, n = 6): 0 n (%)
- AE: Somnolence (MAD 200 mg QD, n = 6): 0 n (%)
- AE: Syncope (MAD 200 mg QD, n = 6): 0 n (%)
- AE: Thermal burn (MAD 200 mg QD, n = 6): 0 n (%)
- AE: Throat irritation (MAD 200 mg QD, n = 6): 0 n (%)
- AE: Upper respiratory tract infection (MAD 200 mg QD, n = 6): 1 (16.7) n (%)
- Total subjects with an event (MAD 200 mg QD, n = 6): 1 (16.7) n (%)
- AE SOC: Ear and labyrinth disorders (MAD 350 mg QD, n = 6): 0 n (%)
- AE SOC: Eye disorders (MAD 350 mg QD, n = 6): 0 n (%)
- AE SOC: Gastrointestinal Disorders (MAD 350 mg QD, n = 6): 0 n (%)
- AE SOC: Infections and infestations (MAD 350 mg QD, n = 6): 0 n (%)
- AE SOC: Injury, poisoning and procedural complications (MAD 350 mg QD, n = 6): 0 n (%)
- AE SOC: Investigations (MAD 350 mg QD, n = 6): 0 n (%)
- AE SOC: Musculoskeletal and connective tissue disorders (MAD 350 mg QD, n = 6): 0 n (%)
- AE SOC: Nervous system disorders (MAD 350 mg QD, n = 6): 0 n (%)
- AE SOC: Psychiatric disorders (MAD 350 mg QD, n = 6): 0 n (%)
- AE SOC: Respiratory, thoracic and mediastinal disorders (MAD 350 mg QD, n = 6): 0 n (%)
- AE SOC: Skin and subcutaneous tissue disorders (MAD 350 mg QD, n = 6): 1 (16.7) n (%)
- AE: Abdominal pain (MAD 350 mg QD, n = 6): 0 n (%)
- AE: Back pain (MAD 350 mg QD, n = 6): 0 n (%)
- AE: Blood creatinine phosphokinase increased (MAD 350 mg QD, n = 6): 0 n (%)
- AE: Cerumen impaction (MAD 350 mg QD, n = 6): 0 n (%)
- AE: Cough (MAD 350 mg QD, n = 6): 0 n (%)
- AE: Diarrhoea (MAD 350 mg QD, n = 6): 0 n (%)
- AE: Eye pain (MAD 350 mg QD, n = 6): 0 n (%)
- AE: Haemoptysis (MAD 350 mg QD, n = 6): 0 n (%)
- AE: Headache (MAD 350 mg QD, n = 6): 0 n (%)
- AE: Psychotic disorder (MAD 350 mg QD, n = 6): 0 n (%)
- AE: Rash (MAD 350 mg QD, n = 6): 1 (16.7) n (%)
- AE: Somnolence (MAD 350 mg QD, n = 6): 0 n (%)
- AE: Syncope (MAD 350 mg QD, n = 6): 0 n (%)
- AE: Thermal burn (MAD 350 mg QD, n = 6): 0 n (%)
- AE: Throat irritation (MAD 350 mg QD, n = 6): 0 n (%)
- AE: Upper respiratory tract infection (MAD 350 mg QD, n = 6): 0 n (%)
- Total subjects with an event (MAD 350 mg QD, n = 6): 1 (16.7) n (%)
- AE SOC: Ear and labyrinth disorders (MAD any dose, n = 24): 1 (4.2) n (%)
- AE SOC: Eye disorders (MAD any dose, n = 24): 1 (4.2) n (%)
- AE SOC: Gastrointestinal Disorders (MAD any dose, n = 24): 2 (8.3) n (%)
- AE SOC: Infections and infestations (MAD any dose, n = 24): 1 (4.2) n (%)
- AE SOC: Injury, poisoning and procedural complications (MAD any dose, n = 24): 1 (4.2) n (%)
- AE SOC: Investigations (MAD any dose, n = 24): 0 n (%)
- AE SOC: Musculoskeletal and connective tissue disorders (MAD any dose, n = 24): 1 (4.2) n (%)
- AE SOC: Nervous system disorders (MAD any dose, n = 24): 1 (4.2) n (%)
- AE SOC: Psychiatric disorders (MAD any dose, n = 24): 1 (4.2) n (%)
- AE SOC: Respiratory, thoracic and mediastinal disorders (MAD any dose, n = 24): 2 (8.3) n (%)
- AE SOC: Skin and subcutaneous tissue disorders (MAD any dose, n = 24): 1 (4.2) n (%)
- AE: Abdominal pain (MAD any dose, n = 24): 1 (4.2) n (%)
- AE: Back pain (MAD any dose, n = 24): 1 (4.2) n (%)
- AE: Blood creatinine phosphokinase increased (MAD any dose, n = 24): 0 n (%)
- AE: Cerumen impaction (MAD any dose, n = 24): 1 (4.2) n (%)
- AE: Cough (MAD any dose, n = 24): 1 (4.2) n (%)
- AE: Diarrhoea (MAD any dose, n = 24): 1 (4.2) n (%)
- AE: Eye pain (MAD any dose, n = 24): 1 (4.2) n (%)
- AE: Haemoptysis (MAD any dose, n = 24): 1 (4.2) n (%)
- AE: Headache (MAD any dose, n = 24): 1 (4.2) n (%)
- AE: Psychotic disorder (MAD any dose, n = 24): 1 (4.2) n (%)
- AE: Rash (MAD any dose, n = 24): 1 (4.2) n (%)
- AE: Somnolence (MAD any dose, n = 24): 0 n (%)
- AE: Syncope (MAD any dose, n = 24): 0 n (%)
- AE: Thermal burn (MAD any dose, n = 24): 1 (4.2) n (%)
- AE: Throat irritation (MAD any dose, n = 24): 1 (4.2) n (%)
- AE: Upper respiratory tract infection (MAD any dose, n = 24): 1 (4.2) n (%)
- Total subjects with an event (MAD any dose, n = 24): 8 (33.3) n (%)
- Number of AEs reported [1]: 13 AEs
- Participants with AEs [1]: 8 participants
- AE: Cough [2]: 1 (4.2) n (%)
- AE: Diarrhea [2]: 1 (4.2) n (%)
- AE: Dizziness [2]: 0 n (%)
- AE: Headache/tension headache [2]: 1 (4.2) n (%)
- AE: Nausea [2]: 0 n (%)
- AE: Thermal burns [2]: 1 (4.2) n (%)
- AE: Upper respiratory tract infection [2]: 1 (4.2) n (%)
- Subjects with AEs [2]: 8 (33.3) n (%)
